Data reported in ChEMBL document CHEMBL1201862, “PubChem BioAssay data set” (2004).
Activity calls are given as the source filed them.

Tests used:
[1] = biological target: T1, Nuclear receptor subfamily 0 group B member 1 (Homo sapiens, UniProt P51843); test: Luminescence-based cell-based high throughput dose response assay for inhibitors of the orphan nuclear receptor subfamily 0, group B, member 1 (DAX1; NR0B1). [Related pubchem assays (depositor defined):AID504766, AID504790]; type: functional
T1 sequence (P51843 whole entry): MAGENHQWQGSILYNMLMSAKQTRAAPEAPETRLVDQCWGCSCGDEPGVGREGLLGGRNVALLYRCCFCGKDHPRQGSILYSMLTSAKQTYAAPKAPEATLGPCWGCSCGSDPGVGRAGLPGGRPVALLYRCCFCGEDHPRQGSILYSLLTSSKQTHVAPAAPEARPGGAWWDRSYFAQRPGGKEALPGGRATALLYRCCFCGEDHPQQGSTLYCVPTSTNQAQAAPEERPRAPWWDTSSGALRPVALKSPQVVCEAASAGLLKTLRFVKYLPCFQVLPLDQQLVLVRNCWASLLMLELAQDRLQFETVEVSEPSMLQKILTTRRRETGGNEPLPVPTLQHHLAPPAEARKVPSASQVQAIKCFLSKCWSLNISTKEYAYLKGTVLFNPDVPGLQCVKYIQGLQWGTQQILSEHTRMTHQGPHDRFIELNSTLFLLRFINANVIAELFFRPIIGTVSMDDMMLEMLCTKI

HEK293 = test: cells; type: functional, cell-based; settings: Homo sapiens
[2] = biological target: Dual specificity protein phosphatase 3 (Homo sapiens, UniProt P51452); test: VHR phosphatase inhibition, dose response, selectivity assay for STEP inhibitor project, biochemical (AID 602374); type: functional; settings: read-out: IC50_Mean
Dual specificity protein phosphatase 3, sequence (P51452 whole entry): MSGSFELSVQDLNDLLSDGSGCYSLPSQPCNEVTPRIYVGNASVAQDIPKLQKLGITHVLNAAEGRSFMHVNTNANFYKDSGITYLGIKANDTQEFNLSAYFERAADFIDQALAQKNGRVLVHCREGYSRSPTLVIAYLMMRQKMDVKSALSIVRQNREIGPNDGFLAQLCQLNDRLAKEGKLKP

[3] = biological target: Tyrosine-protein phosphatase non-receptor type 5 (Homo sapiens, UniProt P54829); test: PTPN5 enzyme inhibition – biochemical, fluorescence intensity, uHTS hits, confirmation (AID 602372); type: functional; settings: read-out: IC50_Mean
Tyrosine-protein phosphatase non-receptor type 5, sequence (P54829 whole entry): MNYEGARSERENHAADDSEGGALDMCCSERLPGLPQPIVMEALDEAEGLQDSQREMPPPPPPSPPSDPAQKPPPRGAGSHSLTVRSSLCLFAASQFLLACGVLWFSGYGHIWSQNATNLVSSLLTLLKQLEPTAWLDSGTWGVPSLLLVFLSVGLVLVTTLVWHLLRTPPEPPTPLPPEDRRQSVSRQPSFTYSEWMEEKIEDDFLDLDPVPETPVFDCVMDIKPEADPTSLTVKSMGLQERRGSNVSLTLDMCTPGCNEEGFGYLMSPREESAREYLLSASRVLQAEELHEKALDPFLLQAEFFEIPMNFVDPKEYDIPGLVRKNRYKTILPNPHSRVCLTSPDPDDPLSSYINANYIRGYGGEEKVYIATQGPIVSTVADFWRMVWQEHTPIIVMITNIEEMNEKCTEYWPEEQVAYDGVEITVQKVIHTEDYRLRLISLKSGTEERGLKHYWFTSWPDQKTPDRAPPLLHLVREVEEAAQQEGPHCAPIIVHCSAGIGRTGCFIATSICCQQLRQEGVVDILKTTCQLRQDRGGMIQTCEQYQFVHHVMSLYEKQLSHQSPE

[4] = biological target: Tyrosine-protein phosphatase non-receptor type 11 (Homo sapiens, UniProt Q06124); test: PTPN11 enzyme inhibitors – biochemical, selectivity assay for STEP inhibitor project, dose response (AID 602367); type: functional; settings: read-out: IC50_Mean
Tyrosine-protein phosphatase non-receptor type 11, sequence (Q06124 whole entry): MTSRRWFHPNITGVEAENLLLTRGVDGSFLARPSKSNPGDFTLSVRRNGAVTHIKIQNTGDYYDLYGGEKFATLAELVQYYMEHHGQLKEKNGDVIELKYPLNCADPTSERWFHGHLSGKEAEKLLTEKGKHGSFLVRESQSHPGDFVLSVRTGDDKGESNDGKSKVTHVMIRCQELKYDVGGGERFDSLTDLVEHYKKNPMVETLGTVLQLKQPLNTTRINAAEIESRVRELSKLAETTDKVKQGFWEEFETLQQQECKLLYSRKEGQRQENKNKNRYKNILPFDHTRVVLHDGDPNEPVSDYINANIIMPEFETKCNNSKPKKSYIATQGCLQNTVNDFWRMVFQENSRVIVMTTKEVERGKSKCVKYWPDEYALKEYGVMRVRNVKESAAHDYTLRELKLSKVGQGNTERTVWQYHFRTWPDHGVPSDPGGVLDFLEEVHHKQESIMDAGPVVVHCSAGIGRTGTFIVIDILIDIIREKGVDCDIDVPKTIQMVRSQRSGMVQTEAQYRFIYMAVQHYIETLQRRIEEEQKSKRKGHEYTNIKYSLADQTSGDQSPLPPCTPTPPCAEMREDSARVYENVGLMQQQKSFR

[5] = biological target: T2, Sentrin-specific protease 8 (Homo sapiens, UniProt Q96LD8); type: functional
T2 sequence (Q96LD8 whole entry): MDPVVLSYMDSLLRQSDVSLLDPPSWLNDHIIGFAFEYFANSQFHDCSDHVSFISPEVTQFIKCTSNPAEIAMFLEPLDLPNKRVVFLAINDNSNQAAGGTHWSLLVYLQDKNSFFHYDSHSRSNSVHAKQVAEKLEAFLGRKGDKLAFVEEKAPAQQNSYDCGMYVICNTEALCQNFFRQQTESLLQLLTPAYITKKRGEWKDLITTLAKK

[6] = biological target: Mitochondrial peptide methionine sulfoxide reductase (Bos taurus, UniProt P54149); type: functional;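 further: absorbance read-out, biochemical high-throughput dose-response screen for MsrA inhibitors, confirmatory; recombinant bovine MsrA coupled to E. coli TrxB with NADPH and selenocystamine; potency is for inhibitors of MsrA activity on DMSO substrate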
Mitochondrial peptide methionine sulfoxide reductase, sequence (P54149 whole entry): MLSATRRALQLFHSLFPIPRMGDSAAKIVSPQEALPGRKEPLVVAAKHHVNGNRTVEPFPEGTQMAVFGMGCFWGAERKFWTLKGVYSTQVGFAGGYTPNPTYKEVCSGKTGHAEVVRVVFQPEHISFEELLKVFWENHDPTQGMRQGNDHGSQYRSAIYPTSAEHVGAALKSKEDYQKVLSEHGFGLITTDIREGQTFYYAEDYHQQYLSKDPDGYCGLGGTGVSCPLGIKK

INS1 = test: INS-1E survival protection against cytokine death – cell-based, luminescence, retest, dose response (AID 449756); type: functional; settings: Rattus norvegicus;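 further: cell death triggered by IL-1 beta plus TNF-alpha plus IFN-gamma mixture; protective hits raise ATP signal compared with cytokine alone wells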
[7] = biological target: T2, Sentrin-specific protease 8; type: functional; remark: listed apart in the source
[8] = biological target: ATP-dependent molecular chaperone HSP82 (Candida albicans (strain WO-1) (Yeast), UniProt C4YTQ8); test: steroid-induced GRE reporter decrease in yeast – S. cerevisiae, luminescence, Hsp90 inhibitor project, dose response (AID 2400); type: functional, cell-based;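 further: beta-galactosidase luminescence from glucocorticoid response element reporter as proxy for Hsp90 function; inhibitor potency where signal loss means Hsp90 inhibition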
ATP-dependent molecular chaperone HSP82, sequence (C4YTQ8 whole entry): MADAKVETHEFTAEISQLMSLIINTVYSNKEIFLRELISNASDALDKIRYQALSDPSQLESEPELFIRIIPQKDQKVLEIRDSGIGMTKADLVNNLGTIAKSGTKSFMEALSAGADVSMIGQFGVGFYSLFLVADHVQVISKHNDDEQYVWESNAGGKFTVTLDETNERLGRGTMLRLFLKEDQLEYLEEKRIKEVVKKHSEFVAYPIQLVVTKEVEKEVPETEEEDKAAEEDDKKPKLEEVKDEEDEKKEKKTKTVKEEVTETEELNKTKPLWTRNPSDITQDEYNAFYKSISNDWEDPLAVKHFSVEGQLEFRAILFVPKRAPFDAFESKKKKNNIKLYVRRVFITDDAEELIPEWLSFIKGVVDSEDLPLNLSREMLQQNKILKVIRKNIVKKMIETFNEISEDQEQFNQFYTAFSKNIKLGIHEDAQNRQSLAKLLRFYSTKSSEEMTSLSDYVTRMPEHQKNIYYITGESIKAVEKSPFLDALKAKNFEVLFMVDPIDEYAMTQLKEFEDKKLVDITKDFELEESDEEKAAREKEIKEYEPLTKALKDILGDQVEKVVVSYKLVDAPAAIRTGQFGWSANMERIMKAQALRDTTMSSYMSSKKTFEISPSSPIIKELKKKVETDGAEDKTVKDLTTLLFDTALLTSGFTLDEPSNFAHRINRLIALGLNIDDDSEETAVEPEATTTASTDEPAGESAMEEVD

[9] = biological target: T3, Serine/threonine-protein phosphatase (Candida dubliniensis (strain CD36 / CBS 7987 / NCPF 3949 / NRRLY-17841) (Yeast), UniProt B9W6M3); test: blockers of CaCl2-induced CDRE-lacZ signaling – S. cerevisiae, luminescence, secondary, dose response (AID 2388); type: functional, cell-based;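 further: yeast reporter cells carrying a calcineurin-responsive lacZ construct stimulated with calcium chloride; luminescent beta-galactosidase reporter signal in whole cells rather than isolated phosphatase activity; potency for inhibition where a drop in reporter signal means calcineurin blockade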
T3 sequence (B9W6M3 whole entry): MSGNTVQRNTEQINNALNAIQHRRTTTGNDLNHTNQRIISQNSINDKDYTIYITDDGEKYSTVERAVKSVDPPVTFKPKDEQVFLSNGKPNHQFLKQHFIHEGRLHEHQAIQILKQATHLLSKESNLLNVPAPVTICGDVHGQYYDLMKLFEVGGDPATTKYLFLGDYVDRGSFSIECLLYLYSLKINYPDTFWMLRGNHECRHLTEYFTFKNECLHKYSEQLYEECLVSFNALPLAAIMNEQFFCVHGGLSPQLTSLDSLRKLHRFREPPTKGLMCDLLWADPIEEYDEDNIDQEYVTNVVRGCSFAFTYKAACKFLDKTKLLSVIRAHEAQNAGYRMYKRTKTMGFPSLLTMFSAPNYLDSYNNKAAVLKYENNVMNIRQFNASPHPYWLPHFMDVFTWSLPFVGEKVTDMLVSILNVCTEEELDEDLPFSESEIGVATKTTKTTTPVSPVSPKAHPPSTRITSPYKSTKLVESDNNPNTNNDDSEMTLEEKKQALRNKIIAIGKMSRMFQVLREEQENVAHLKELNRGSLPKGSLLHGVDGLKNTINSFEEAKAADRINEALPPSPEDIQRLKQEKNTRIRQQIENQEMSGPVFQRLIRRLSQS

[10] = NIH-3T3 fibroblast cytotoxicity, dose response, cytotoxicity control, cell-based, fluorescence, Alamar Blue, secondary assay (AID 2327); type: functional;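 further: NIH-3T3 mouse fibroblasts cultured with fluconazole at 8 µg/mL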
[11] = fluconazole-exposed Candida albicans growth modulators – fluorescence, retest, confirmation (AID 2467); type: functional, cell-based
[12] = biological target: T4, Low molecular weight phosphotyrosine protein phosphatase (Homo sapiens, UniProt P24666); type: functional; settings: read-out: IC50_Mean
T4 sequence (P24666 whole entry): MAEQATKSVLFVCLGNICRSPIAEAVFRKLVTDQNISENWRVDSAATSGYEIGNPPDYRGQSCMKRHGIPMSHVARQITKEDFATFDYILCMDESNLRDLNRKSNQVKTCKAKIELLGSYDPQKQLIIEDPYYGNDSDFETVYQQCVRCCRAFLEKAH

[13] = biological target: T4, Low molecular weight phosphotyrosine protein phosphatase; type: functional; settings: read-out: IC50_Mean; remark: listed apart in the source
[14] = biological target: T5, Tyrosine-protein phosphatase non-receptor type 22 (Homo sapiens, UniProt Q9Y2R2); test: PTPN22 enzyme inhibitors – biochemical, fluorescence, LYP catalytic domain, selectivity assay for LMPTP inhibitor project, dose response (AID 652006); type: functional; settings: read-out: IC50_Mean
T5 sequence (Q9Y2R2 whole entry): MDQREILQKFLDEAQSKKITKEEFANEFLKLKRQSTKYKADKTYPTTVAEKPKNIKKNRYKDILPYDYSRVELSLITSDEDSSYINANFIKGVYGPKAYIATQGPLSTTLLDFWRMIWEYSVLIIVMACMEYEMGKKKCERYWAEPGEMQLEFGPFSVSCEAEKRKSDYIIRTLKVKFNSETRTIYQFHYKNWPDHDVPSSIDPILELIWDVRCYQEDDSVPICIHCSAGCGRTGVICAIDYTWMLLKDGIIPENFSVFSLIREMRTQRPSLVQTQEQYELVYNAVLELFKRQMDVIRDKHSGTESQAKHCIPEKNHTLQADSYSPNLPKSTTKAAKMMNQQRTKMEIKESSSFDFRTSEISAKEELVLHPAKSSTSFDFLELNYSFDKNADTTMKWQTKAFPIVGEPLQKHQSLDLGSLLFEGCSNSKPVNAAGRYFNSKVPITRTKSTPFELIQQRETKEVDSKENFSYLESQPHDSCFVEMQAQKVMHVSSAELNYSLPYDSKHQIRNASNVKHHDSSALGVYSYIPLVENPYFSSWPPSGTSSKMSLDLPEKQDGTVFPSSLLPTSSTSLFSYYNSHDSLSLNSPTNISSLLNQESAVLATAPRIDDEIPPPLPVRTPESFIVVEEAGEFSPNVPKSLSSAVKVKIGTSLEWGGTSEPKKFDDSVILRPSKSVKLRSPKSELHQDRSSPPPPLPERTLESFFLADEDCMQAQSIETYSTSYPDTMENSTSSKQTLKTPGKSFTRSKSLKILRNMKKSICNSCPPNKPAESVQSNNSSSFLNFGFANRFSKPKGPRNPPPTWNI

Leucine aminopeptidase = biological target: T6, Leucine aminopeptidase (Plasmodium falciparum 3D7, UniProt Q8IL11); test: P. falciparum M17LAP inhibitors, primary screen, biochemical, fluorogenic H-Leu-NHMec substrate, 1536-well (AID 1619); type: functional
T6 sequence (Q8IL11 whole entry): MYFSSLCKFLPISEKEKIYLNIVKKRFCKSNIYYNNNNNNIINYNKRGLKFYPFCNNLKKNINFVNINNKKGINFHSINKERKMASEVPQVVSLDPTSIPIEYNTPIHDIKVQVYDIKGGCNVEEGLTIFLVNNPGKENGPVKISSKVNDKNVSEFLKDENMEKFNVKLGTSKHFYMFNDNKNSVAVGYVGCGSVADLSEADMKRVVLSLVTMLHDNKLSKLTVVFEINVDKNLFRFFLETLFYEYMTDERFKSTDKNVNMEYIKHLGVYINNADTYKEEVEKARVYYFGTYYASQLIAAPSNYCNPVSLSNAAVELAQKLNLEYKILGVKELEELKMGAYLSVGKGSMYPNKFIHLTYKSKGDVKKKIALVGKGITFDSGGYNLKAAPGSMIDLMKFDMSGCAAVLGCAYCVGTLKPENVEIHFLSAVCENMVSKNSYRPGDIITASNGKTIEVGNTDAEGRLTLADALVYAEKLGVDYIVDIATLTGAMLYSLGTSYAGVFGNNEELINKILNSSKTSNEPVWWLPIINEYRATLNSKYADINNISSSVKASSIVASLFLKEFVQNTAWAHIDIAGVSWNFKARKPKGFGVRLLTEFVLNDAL

Compound: COC(=O)c1sc(=S)n(Cc2ccccc2)c1C
- IC50 [1]: > 67.5 µM (inactive)
- IC50 (HEK293): > 67.5 µM (inactive)

Compound: COCCN(C(=S)Nc1c(C)cc(C)cc1C)C(C)c1cccnc1 (stereo unspecified)
- IC50 [2]: 0.696 µM (active)
- IC50 [3]: > 80 µM (inactive)
- IC50 [4]: 1.71 µM (active)

Compound: COC(=O)C1(Cc2ccc(O)cc2)OC(=O)C(O)=C1c1ccc(O)cc1 (stereo unspecified)
- IC50 [1]: > 67.5 µM (inactive)
- IC50 (HEK293): 56.1 µM (inactive)

Compound: CC(=O)NN1C(=O)c2ccc3c4c(ccc(c24)C1=O)C(=O)N(NC(C)=O)C3=O
- IC50 [5]: 0.445 µM (active)
- IC50 [6]: 76.8 µM (inactive)
- AC50 (INS1): 0.652 µM (active)
- IC50 [7]: 0.0707 µM (active)

Compound: CCc1cc(-c2nnc(S)n2-c2ccccc2C)cs1
- EC50 [8]: > 160 µM (inactive)
- EC50 [9]: > 180 µM (inactive)
- EC50 [10]: > 150 µM (inactive)
- EC50 [11]: 0.363 µM (active)

Compound: COCCNC(=O)C(c1ccc(Cl)cc1)N(Cc1ccco1)C(=O)CCC(=O)Nc1ccccn1 (stereo unspecified)
- IC50 [1]: > 67.5 µM (inactive)
- IC50 (HEK293): > 67.5 µM (inactive)

Compound: COc1ccc(Nc2nc(NCc3cccs3)nc3ccsc23)cc1OC
- IC50 [12]: 16.4 µM (active)
- IC50 [13]: 11.6 µM (active)
- IC50 [14]: 22.7 µM (inactive)

Compound: Cc1[nH]c(C(=O)N/N=C/c2ccc(C(=O)O)cc2)c(C)c1C(=O)N/N=C/c1ccc(C(=O)O)cc1
- IC50 (Leucine aminopeptidase): 45.7 µM (active)
- IC50 [6]: 114 µM (inactive)

Compound: Nc1ccc(C(=O)N/N=C\c2ccc(OC(=O)c3ccccc3Cl)cc2)cc1
- EC50 [8]: > 160 µM (inactive)
- EC50 [9]: > 180 µM (inactive)
- EC50 [10]: > 160 µM (inconclusive)
- EC50 [11]: 0.797 µM (active)
